Laboratory results: the C3SDB collision cross section collection

conditions: [M+H-H2O]+; instrument: TW; calibrated with polyalanine and drug standards

collision cross section (N2)	SMILES
166.5 Å²	CNc1ccccc1C(=O)N1CCc2c([nH]c3ccccc23)C1=O [RHETSININE]
256.8 Å²	CC(C)=CCC/C(C)=C/CC/C(C)=C/CC/C(C)=C/CC/C(C)=C/CC/C(C)=C/CC/C(C)=C/CC/C(C)=C/CC/C(C)=C/CO [SOLANESOL]

same assay, conditions: [M+H]+; instrument: TW; calibrated with polyalanine and drug standards

SMILES	collision cross section (N2)
CO[C@H]1[C@H](O)[C@H](O[C@H]2CC[C@@]3(C=O)[C@H](CC[C@@H]4[C@@H]3CC[C@]3(C)[C@@H](C5=CC(=O)OC5)CC[C@]43O)C2)O[C@@H](C)[C@@H]1O [PERUVOSIDE]	239.4 Å²
NC(=O)NC(=O)Cc1ccccc1 [PHENACEMIDE]	128.3 Å²
OCCc1ccccc1 [PHENYLETHYL ALCOHOL]	121.2 Å²
CC1=C(C/C=C(\C)CCC[C@H](C)CCC[C@H](C)CCCC(C)C)C(=O)c2ccccc2C1=O [PHYTONADIONE]	220 Å²
CC(C)NCC(O)COc1cccc2[nH]ccc12 (stereo not drawn) [PINDOLOL]	157.6 Å²
O=C(O)c1ccc2c(c1)OCO2 [PIPERONYLIC ACID]	124.5 Å²
COc1cc(/C=C/C(=O)N2CCC=CC2=O)cc(OC)c1OC [PIPLARTINE]	176.1 Å²
C[C@]12C=CC(=O)C=C1CC[C@@H]1[C@@H]2[C@@H](O)C[C@@]2(C)[C@H]1CC[C@]2(O)C(=O)CO [PREDNISOLONE]	183.7 Å²
CC(C)=CCOc1cc2oc(=O)ccc2cc1O [PRENYLETIN]	153.5 Å²
CC(=O)[C@H]1CC[C@H]2[C@@H]3CCC4=CC(=O)CC[C@]4(C)[C@H]3CC[C@]12C [PROGESTERONE]	177.8 Å²
CCCN(CCC)C(=O)C(CCC(=O)O)NC(=O)c1ccccc1 (stereo not drawn) [PROGLUMIDE]	181.1 Å²
C=Cc1c(C)c2cc3[nH]c(cc4nc(cc5nc(cc1[nH]2)C(C)=C5CCC(=O)O)C(CCC(=O)O)=C4C)c(C)c3C=C [PROTOPORPHYRIN IX]	238.8 Å²
CC[C@@]1(O)C[C@H](O[C@H]2C[C@H](N(C)C)[C@H](O)[C@H](C)O2)c2c(cc3c(c2O)C(=O)c2c(O)ccc(O)c2C3=O)[C@H]1C(=O)OC [PYRROMYCIN]	233.9 Å²
C=C[C@H]1CN2CC[C@H]1C[C@@H]2[C@@H](OC(=O)OCC)c1ccnc2ccc(OC)cc12 [QUININE ETHYL CARBONATE]	196.7 Å²
CN/C(=C\[N+](=O)[O-])NCCSCc1ccc(CN(C)C)o1 [RANITIDINE]	167 Å²
Cn1c([N+](=O)[O-])cnc1COC(N)=O [RONIDAZOLE]	136.9 Å²
CCCN(CCC)CCc1cccc2c1CC(=O)N2 [ROPINIROLE]	162.5 Å²
O=C(/C=C/c1ccc(O)c(O)c1)O[C@H](Cc1ccc(O)c(O)c1)C(=O)O [ROSMARINIC ACID]	169.2 Å²
C=C[C@H](C1=CC(=O)C=CC1=O)c1ccccc1 [S-DALBERGIONE]	143.6 Å²
COc1cc2c(cc1O)CCNC2C (stereo not drawn) [SALSOLINE]	145.8 Å²
Cc1ncc([N+](=O)[O-])n1CC(C)O (stereo not drawn) [SECNIDAZOLE]	135.2 Å²
O=C1C=C2C=C[C@@H]3C[C@@]2(O1)[C@H]1CCCCN31 [SECURININE]	146.4 Å²
CO[C@H]1C[C@H](O[C@@H]2/C(C)=C/C[C@@H]3C[C@@H](C[C@]4(CC[C@H](C)[C@@H](C5CCCCC5)O4)O3)OC(=O)[C@@H]3C=C(C)/C(=N/O)[C@H]4OC/C(=C\C=C\[C@@H]2C)[C@]43O)O[C@@H](C)[C@@H]1O [SELAMECTIN]	293.2 Å²
COc1ccc(-c2cc(=O)c3c(OC)c(OC)c(OC)cc3o2)cc1OC [SINENSETIN]	186.4 Å²
C[C@@H]1CC[C@@]2(OC1)O[C@H]1C[C@H]3[C@@H]4CC[C@@H]5C[C@@H](O)CC[C@]5(C)[C@H]4CC[C@]3(C)[C@H]1[C@@H]2C [SMILAGENIN]	207.7 Å²
O=C1C[C@@H]2OCC=C3CN4CC[C@]56c7ccccc7N1[C@H]5[C@H]2[C@H]3C[C@H]46 [STRYCHNINE]	172.2 Å²
Nc1ccc(S(=O)(=O)Nc2ncccn2)cc1 [SULFADIAZINE]	150.9 Å²
COc1ncnc(NS(=O)(=O)c2ccc(N)cc2)c1OC [SULFADOXINE]	166.2 Å²

More lines, now with the values ahead:

collision cross section (N2)	SMILES
145.9 Å²	O=C1c2ccccc2C(=O)C1c1ccccc1 [PHENINDIONE]
160.7 Å²	O=C(CCc1ccc(O)cc1)c1c(O)cc(O)cc1O [PHLORETIN]
194.9 Å²	O=C(O)c1ccccc1C(=O)Nc1ccc(S(=O)(=O)Nc2nccs2)cc1 [PHTHALYLSULFATHIAZOLE]
192.6 Å²	NC(=O)C1(N2CCCCC2)CCN(CCCC(=O)c2ccc(F)cc2)CC1 [PIPAMPERONE]
147.3 Å²	O=c1cc(-c2ccccc2)oc2cccc(O)c12 [PRIMULETIN]
161.5 Å²	CC(C)NCC(O)COc1cccc2ccccc12 (stereo not drawn) [PROPRANOLOL]
153.5 Å²	CC1=CCc2c(cc3oc(C)cc(=O)c3c2O)OC1 [PTAEROXYLIN]
185 Å²	O=C(NC(Cc1cc(=O)[nH]c2ccccc12)C(=O)O)c1ccc(Cl)cc1 (stereo not drawn) [REBAMIPIDE]
220.7 Å²	Cc1nc2sccn2c(=O)c1CCN1CCC(=C(c2ccc(F)cc2)c2ccc(F)cc2)CC1 [RITANSERIN]
169.1 Å²	O=C1C=CC(=C(c2ccc(O)cc2)c2ccc(O)cc2)C=C1 [ROSOLIC ACID]
213.6 Å²	COc1cc([C@H]2Oc3cc([C@H]4Oc5cc(O)cc(O)c5C(=O)[C@@H]4O)ccc3O[C@@H]2CO)ccc1O [SILIBININ]
182.4 Å²	O=C(O)CCC(=O)Nc1ccc(S(=O)(=O)Nc2nccs2)cc1 [SUCCINYLSULFATHIAZOLE]
159 Å²	COc1cnc(NS(=O)(=O)c2ccc(N)cc2)nc1 [SULFAMETER]

same assay, conditions: [M+Na]+; instrument: TW; calibrated with polyalanine and drug standards

collision cross section (N2)	SMILES
194.4 Å²	O=C(CCc1ccc(O)cc1)c1c(O)cc(O)cc1O[C@@H]1O[C@H](CO)[C@@H](O)[C@H](O)[C@H]1O [PHLORIDZIN]
205.9 Å²	C[C@@H]1O[C@@H](Oc2c(-c3ccc(O)c(O)c3)oc3cc(O)cc(O)c3c2=O)[C@H](O)[C@H](O)[C@H]1O [QUERCITRIN]
163.2 Å²	OCc1ccccc1O[C@@H]1O[C@H](CO)[C@@H](O)[C@H](O)[C@H]1O [SALICIN]
311.6 Å²	CO[C@H]1C[C@@H]2CC[C@@H](C)[C@@](O)(O2)C(=O)C(=O)N2CCCC[C@H]2C(=O)O[C@H]([C@H](C)C[C@@H]2CC[C@@H](O)[C@H](OC)C2)CC(=O)[C@H](C)/C=C(\C)[C@@H](O)[C@@H](OC)C(=O)[C@H](C)C[C@H](C)/C=C/C=C/C=C/1C [SIROLIMUS]

same assay, conditions: [M]+; instrument: TW; calibrated with polyalanine and drug standards

SMILES	collision cross section (N2)
C[N+]12CC[C@@]34c5ccccc5N5C(=O)CC6OCC=C(C1)[C@H](CC32)[C@@H]6C54 (stereo partly drawn) [STRYCHNINE METHIODIDE]	175.2 Å²
